Measured values taken from PubChem BioAssay AID330 (DTP/NCI, 2004).
Where “and” joins values, the source holds several entries; their conditions need not be identical. Equal entries are not always repeated. Toxic doses and inconclusive results are not listed.

Tested on: P388 leukemia ip, CD2F1 mice, survival T/C
Experiment: NCI In Vivo Anticancer Drug Screen. Data for tumor model P388 Leukemia (intraperitoneal) in CD2F1 (CDF1) mice
Conditions: endpoint: median survival time, higher = longer survival
Outline: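 Mice carrying the transplanted tumor received test compound or vehicle. Survival was recorded in each group, and the value is the treated-group measurement divided by that of the vehicle-treated control group.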

[1] = dose: 12.5 mg/kg/injection, schedule: Q01DX005 (ip), vehicle: saline with Tween-80
[2] = dose: 25.0 mg/kg/injection, schedule: Q01DX005 (ip), vehicle: saline with Tween-80
[3] = dose: 50.0 mg/kg/injection, schedule: Q01DX005 (ip), vehicle: saline with Tween-80
[4] = dose: 100.0 mg/kg/injection, schedule: Q01DX005 (ip), vehicle: saline with Tween-80
[5] = dose: 60.0 mg/kg/injection, schedule: Q01DX005 (ip), vehicle: saline with Tween-80
[6] = dose: 120.0 mg/kg/injection, schedule: Q01DX005 (ip), vehicle: saline with Tween-80
[7] = dose: 50.0 mg/kg/injection, schedule: Q01DX009 (ip), vehicle: Klucel (hydroxypropylcellulose) (HPC)
[8] = dose: 100.0 mg/kg/injection, schedule: Q01DX009 (ip), vehicle: Klucel (hydroxypropylcellulose) (HPC)
[9] = dose: 200.0 mg/kg/injection, schedule: Q01DX009 (ip), vehicle: Klucel (hydroxypropylcellulose) (HPC)
[10] = dose: 50.0 mg/kg/injection, schedule: Q01DX009 (ip), vehicle: saline with Tween-80
[11] = dose: 100.0 mg/kg/injection, schedule: Q01DX009 (ip), vehicle: saline with Tween-80
[12] = dose: 200.0 mg/kg/injection, schedule: Q01DX009 (ip), vehicle: saline with Tween-80
[13] = dose: 240.0 mg/kg/injection, schedule: Q01DX005 (ip), vehicle: saline with Tween-80
[14] = dose: 100.0 mg/kg/injection, schedule: Q01DX001 (ip), vehicle: Klucel (hydroxypropylcellulose) (HPC)
[15] = dose: 200.0 mg/kg/injection, schedule: Q01DX005 (ip), vehicle: saline with Tween-80

With Nc1ncnc2c1ncn2[C@@H](C=O)O[C@@H](C=O)CO the T/C (dose: 3.13 mg/kg/injection, schedule: Q01DX009 (ip), vehicle: other) was 155 % of control and the T/C (dose: 6.25 mg/kg/injection, schedule: Q01DX009 (ip), vehicle: other) was 150 % of control and 169 % of control.

With CN(C)c1ncnc2c1ccn2COCCO the T/C (dose: 50.0 mg/kg/injection, schedule: Q01DX005 (ip), vehicle: distilled water + alcohol) was 100 % of control, the T/C (dose: 100.0 mg/kg/injection, schedule: Q01DX005 (ip), vehicle: distilled water + alcohol) was 98 % of control and the T/C (dose: 200.0 mg/kg/injection, schedule: Q01DX005 (ip), vehicle: distilled water + alcohol) was 107 % of control.

CCCCCC(CN(C)C)C(=O)/C=C/c1ccc(F)cc1 (configuration not stated) was tested, and the T/C [1] was 98 % of control, the T/C [2] was 104 % of control and the T/C [3] was 107 % of control and 118 % of control. The T/C [4] was 103 % of control.

CCOC(=O)C(CO)NC(=O)c1cnc2ccccc2c1 (configuration not stated) was tested, and the T/C [5] was 99 % of control and the T/C [6] was 97 % of control.

For COc1ccc(/C=C/C(CCN(C)C)=N/NC(=S)Nc2ccc(Br)cc2)cc1, the T/C (dose: 100.0 mg/kg/injection, schedule: Q01DX001 (ip), vehicle: saline with Tween-80) was 101 % of control, the T/C (dose: 200.0 mg/kg/injection, schedule: Q01DX001 (ip), vehicle: saline with Tween-80) was 96 % of control and the T/C (dose: 400.0 mg/kg/injection, schedule: Q01DX001 (ip), vehicle: saline with Tween-80) was 105 % of control.

For O=C(O)CCCNC1=CC(=O)c2ccccc2C1=O, the T/C (dose: 25.0 mg/kg/injection, schedule: Q04DX003 (ip), vehicle: saline with Tween-80) was 101 % of control, the T/C (dose: 50.0 mg/kg/injection, schedule: Q04DX003 (ip), vehicle: saline with Tween-80) was 104 % of control and the T/C (dose: 100.0 mg/kg/injection, schedule: Q04DX003 (ip), vehicle: saline with Tween-80) was 102 % of control and 86 % of control.

With NC(N)=NS(=O)(=O)c1ccc(N=CC2C(=O)N(c3ccccc3)N(c3ccccc3)C2=O)cc1 the T/C [7] was 92 % of control, the T/C [8] was 92 % of control and the T/C [9] was 100 % of control.

For O=C(Nc1ccc(Br)cc1)ON1CCCCC1, the T/C (dose: 50.0 mg/kg/injection, schedule: Q01DX009 (ip), vehicle: saline) was 91 % of control, the T/C (dose: 100.0 mg/kg/injection, schedule: Q01DX009 (ip), vehicle: saline) was 87 % of control and the T/C (dose: 200.0 mg/kg/injection, schedule: Q01DX009 (ip), vehicle: saline) was 104 % of control.

In the case of CC(C)(C)N(O)N=O.CC(C)(C)N(O)N=O.[Cu], the T/C (dose: 6.25 mg/kg/injection, schedule: Q01DX001 (ip), vehicle: saline with Tween-80) is reported as 103 % of control.

In the case of CC1(C)OC(=O)C(CCc2ccccn2)(CCc2ccccn2)C(=O)O1, the T/C (dose: 12.5 mg/kg/injection, schedule: Q01DX009 (ip), vehicle: saline with Tween-80) is reported as 113 % of control, the T/C (dose: 25.0 mg/kg/injection, schedule: Q01DX009 (ip), vehicle: saline with Tween-80) is reported as 103 % of control and the T/C [10] is reported as 110 % of control. For the same compound, the T/C [11] was 114 % of control and the T/C [12] was 104 % of control.

With C[Si]1(C)O[Si](C)(C)N(N)P(=S)(Oc2ccccc2)N1N the T/C [1] was 101 % of control, the T/C [2] was 108 % of control and the T/C [3] was 104 % of control and 111 % of control.

In the case of C=C1C(=O)C23CCC4C5(C)CCCC4(C4OCCN4C5)C2CCC1C3 (configuration not stated), the T/C (dose: 1.0 mg/kg/injection, schedule: Q01DX009 (ip), vehicle: Klucel (hydroxypropylcellulose) (HPC)) is reported as 104 % of control, the T/C (dose: 2.0 mg/kg/injection, schedule: Q01DX009 (ip), vehicle: Klucel (hydroxypropylcellulose) (HPC)) is reported as 107 % of control and the T/C (dose: 4.0 mg/kg/injection, schedule: Q01DX009 (ip), vehicle: Klucel (hydroxypropylcellulose) (HPC)) is reported as 95 % of control. The T/C (dose: 8.0 mg/kg/injection, schedule: Q01DX009 (ip), vehicle: Klucel (hydroxypropylcellulose) (HPC)) was 95 % of control.

For N=c1c2c(ncn1CCc1ccccc1)CCN(Cc1ccccc1)C2, the T/C (dose: 20.0 mg/kg/injection, schedule: Q01DX009 (ip), vehicle: saline with Tween-80) was 91 % of control and the T/C (dose: 40.0 mg/kg/injection, schedule: Q01DX009 (ip), vehicle: saline with Tween-80) was 94 % of control.

O=C1NC(=O)C2(CCCC2=Nc2ccc(Br)cc2)C2C=CN(Cc3ccccc3)C=C12 (configuration not stated) was tested, and the T/C (dose: 25.0 mg/kg/injection, schedule: Q04DX003 (ip), vehicle: saline) was 107 % of control, the T/C (dose: 50.0 mg/kg/injection, schedule: Q04DX003 (ip), vehicle: saline) was 107 % of control and the T/C (dose: 100.0 mg/kg/injection, schedule: Q04DX003 (ip), vehicle: saline) was 105 % of control and 110 % of control. For the same compound, the T/C (dose: 200.0 mg/kg/injection, schedule: Q04DX003 (ip), vehicle: saline) was 107 % of control.

For COc1ccc(OC)c(NC(=O)CCCC(=O)C(C#N)c2ccc(CC#N)cc2)c1 (configuration not stated), the T/C [5] was 98 % of control, the T/C [6] was 98 % of control and the T/C [13] was 103 % of control.

In the case of C1CC2CC1C13OC1C1(CC1)C1OC213 (configuration not stated), the T/C [14] is reported as 106 % of control and 123 % of control, the T/C (dose: 200.0 mg/kg/injection, schedule: Q01DX001 (ip), vehicle: Klucel (hydroxypropylcellulose) (HPC)) is reported as 109 % of control and the T/C (dose: 400.0 mg/kg/injection, schedule: Q01DX001 (ip), vehicle: Klucel (hydroxypropylcellulose) (HPC)) is reported as 157 % of control.

CC(=O)OC1CC(C(C)C2CC(C)=C(C)C(=O)O2)C2(C)CCC3C(CC4OC45C(O)C=CC(=O)C35C)C12O (configuration not stated) was tested, and the T/C (dose: 7.5 mg/kg/injection, schedule: Q01DX005 (ip), vehicle: Klucel (hydroxypropylcellulose) (HPC)) was 108 % of control, the T/C (dose: 15.0 mg/kg/injection, schedule: Q01DX005 (ip), vehicle: Klucel (hydroxypropylcellulose) (HPC)) was 105 % of control and the T/C (dose: 30.0 mg/kg/injection, schedule: Q01DX005 (ip), vehicle: Klucel (hydroxypropylcellulose) (HPC)) was 101 % of control.

In the case of O=C(Cc1nc2ccc([N+](=O)[O-])cc2nc1CC(=O)c1cccnc1)c1cccnc1, the T/C [5] is reported as 97 % of control, the T/C [6] is reported as 92 % of control and the T/C [13] is reported as 90 % of control.

In the case of CC1(c2ccccc2)CCOCO1 (configuration not stated), the T/C [3] is reported as 106 % of control, the T/C [4] is reported as 98 % of control and the T/C [15] is reported as 104 % of control.

For CC1CC2=C(C1)C(C1(C)C(=O)CC3C(C1=O)C3(C)C)C(C)C2=O (configuration not stated), the T/C (dose: 12.5 mg/kg/injection, schedule: Q01DX001 (ip), vehicle: Klucel (hydroxypropylcellulose) (HPC)) was 100 % of control, the T/C (dose: 25.0 mg/kg/injection, schedule: Q01DX001 (ip), vehicle: Klucel (hydroxypropylcellulose) (HPC)) was 96 % of control and the T/C (dose: 50.0 mg/kg/injection, schedule: Q01DX001 (ip), vehicle: Klucel (hydroxypropylcellulose) (HPC)) was 102 % of control. The T/C [14] was 96 % of control.

For CCCOCCOCCOC(C)Oc1ccc(OC)cc1 (configuration not stated), the T/C [5] was 105 % of control, the T/C [6] was 104 % of control and the T/C [13] was 104 % of control.

In the case of CC1(C)C(C#N)C(=O)N(Cc2ccccc2)C(=O)C1C#N (configuration not stated), the T/C [10] is reported as 100 % of control, the T/C [11] is reported as 104 % of control and the T/C [12] is reported as 113 % of control.

In the case of c1ccc(-c2nc(-c3ccc4c(c3)OCO4)[nH]c2-c2ccccc2)cc1, the T/C [7] is reported as 97 % of control, the T/C [8] is reported as 114 % of control and the T/C [9] is reported as 112 % of control.

For Cc1cc(C)c(C#N)c(OCC2CCCO2)n1 (configuration not stated), the T/C [3] was 95 % of control and the T/C [4] was 95 % of control.

For Cc1ccc(S(=O)(=O)Sc2nnnn2C)cc1, the T/C [7] was 106 % of control and the T/C [8] was 97 % of control.

With Cc1cc(=O)c2cc3c(cc2[nH]1)OCO3 the T/C (dose: 50.0 mg/kg/injection, schedule: Q01DX005 (ip), vehicle: Klucel (hydroxypropylcellulose) (HPC)) was 106 % of control, the T/C (dose: 100.0 mg/kg/injection, schedule: Q01DX005 (ip), vehicle: Klucel (hydroxypropylcellulose) (HPC)) was 100 % of control and the T/C (dose: 200.0 mg/kg/injection, schedule: Q01DX005 (ip), vehicle: Klucel (hydroxypropylcellulose) (HPC)) was 100 % of control.

With CCCCOc1cc2c(cc1C(C)c1ccccc1)OCO2 (configuration not stated) the T/C [1] was 94 % of control, the T/C [2] was 91 % of control and the T/C [3] was 101 % of control and 90 % of control.

CCC(C)C(NC=O)C(=O)O (configuration not stated) was tested, and the T/C [3] was 93 % of control, the T/C [4] was 100 % of control and the T/C [15] was 100 % of control.

For COc1ccc(OC)c2c(=O)c(C)c(C(=O)O)[nH]c12, the T/C (dose: 100.0 mg/kg/injection, schedule: Q01DX001 (ip), vehicle: alkali diluted with saline) was 103 % of control, the T/C (dose: 200.0 mg/kg/injection, schedule: Q01DX001 (ip), vehicle: alkali diluted with saline) was 100 % of control and the T/C (dose: 400.0 mg/kg/injection, schedule: Q01DX001 (ip), vehicle: alkali diluted with saline) was 98 % of control.

With CC(=O)OC1OC(C(OC(C)=O)C(Cl)Cl)OC1C(Cl)Cl (configuration not stated) the T/C [10] was 97 % of control, the T/C [11] was 105 % of control and the T/C [12] was 112 % of control.

Cc1c(NC(=O)Nc2c(Cl)cccc2Cl)c(=O)n(-c2ccccc2)n1C was tested, and the T/C [7] was 102 % of control, the T/C [8] was 106 % of control and the T/C [9] was 97 % of control.
